The values below come from US11839637B2, “Neuron activator” (Kinjirushi Co., Ltd., priority 2017, dated 2023).

Type in all cases: cell-based, rat
The subject of data set [1] is PC12 cells. Kind of data set: Dopamine production test of PC12 cells (Experimental example 1). As to conditions: 72 hours; for dopamine-producing ability, as compared to a case without these components: any one component in the medium, NGF 50 ng/ml. As to the method: Dopamine production tests of PC12 cells, using various components, were carried out as follows.
(§1) Such passage was repeated at least three times.
(§2) Supernatants were removed.
(§3) Each sample is numbered 1 to 39.
A concentration of dopamine in each supernatant was measured. Measurement of dopamine concentration was carried out using ELIZA KIT (manufactured by ImmuSmol, Product No.: BA-E-5300) according to the specifications. A ratio of dopamine concentration in each supernatant was expressed as a percentage (%) of a control of which dopamine concentration in the supernatant is 1.
The same applies to FIGS. 2 to 5. In FIG. 1, τ means statistically significant. * means that synergistic effect was confirmed by combining two components. Synergistic effect herein means that use of two components in combination can produce more amount of dopamine than a sum of amounts of dopamine produced when each component is used alone.

In data set [2] the test system is PC12 cells. Put plainly: Toxicity test to PC12 cells using MTT reagent (Experimental example 2). As to conditions: 72 hours, 6-MSITC and DHA 2.5-160 μM, curcumin 2.5-40 μM, isorhamnetin 0.02-10 μM. As to the method: In order to investigate toxicity of each component to PC12 cells, the PC12 cells were cultured in the same manner as in the above steps (1) to (4) of Experimental example 1, except for components added to the medium.
as §2
Background: Formazan colour is commonly taken as a measure of viable cells.

For data set [3], the system named is PC12 cells. Kind of data set: Neurite extension test of PC12 cells (Experimental example 3). As to conditions: 72 hours; for neurite extension effect, as compared to a case without these components: any one component in the medium, NGF 50 ng/ml. The procedure:
Neurite extension tests of PC12 cells, using various components, were carried out as follows.
as §1, §2, §3
Supernatants were removed. Three microscopic images (bright field, ×10 images, three wells per well) of PC12 cells settled in each well were taken. The shape of the whole PC12 cells in the images was observed. A shown in FIG. 6, when PC12 cells undergo differentiation, a neurite 2 extends from a cell body 1. The total number of PC12 cells, and the number of cells having the neurite 2 with a length L2 were counted. The length L2 is a longer length than a longer diameter L1 of the cell body 1. The number of cells having the neurite with the length L2 was divided by the total number of cells to obtain an extension percentage of the PC12 cells. […] The extension percentage was expressed by an average value of all PC12 cells appearing in all images. […] The same applies to FIGS. 8 to 11. […] Synergistic effect herein means that use of two components in combination can increase the extension percentage as compared to a sum of extension percentages when each component is used alone.

Data set [4] deals with PC12 cells. Kind of data set: Toxicity test to PC12 cells using MTT reagent (Experimental example 4). As to conditions: 72 hours, 6-MSITC and DHA 2.5-160 μM, curcumin 2.5-40 μM, isorhamnetin 2.5-20 μM. As to the method:
In order to investigate toxicity of each component to PC12 cells, the PC12 cells were cultured in the same manner as in the above steps (1) to (4) of Experimental example 3, except for components added to the medium.
as §2

The subject of data set [5] is PC12 cells. Kind of data set: Hydrogen peroxide toxicity resistance test, MTT (Experimental example 6). As to conditions: for MTT assay in medium with hydrogen peroxide: hydrogen peroxide 100 μM, component alone or combination with 6-MSITC. As to the method:
In Experimental example 6, resistance of PC12 cells against hydrogen peroxide was tested. The test method is the same as that of Experimental example 5, except that hydrogen peroxide was added to the differentiation medium B, instead of amyloid β in Experimental example 5 above. A concentration of hydrogen peroxide in the differentiation medium B was 100 μM.

Regarding `COc1cc(-c2oc3cc(O)cc(O)c3c(=O)c2O)ccc1O` [isorhamnetin, Isorhamnetin], the “amount of dopamine production produced by the PC12 cells vs control” value in data set [1] (0.02 μM added to the medium), in data set [1] (0.1 μM added to the medium) and in data set [1] (0.5 μM added to the medium) was “higher than the control” each time. For the same compound, in data set [1], the “dopamine-producing ability, as compared to a case without these components” value was “enhanced”. Besides, the “MTT assay compared with control (not using the component)” value in data set [2] and in data set [4] was “higher than the case of not using them (control)” throughout. The “toxicity to PC12 cells” value in data set [2] (MTT) and in data set [4] (MTT) was “low” throughout. For the same compound, the “extension of PC12 cells (extension percentage)” value in data set [3] (0.02 μM added to the medium), in data set [3] (0.1 μM added to the medium) and in data set [3] (0.5 μM added to the medium) was “significant extension enhancement” each time. Further, the “neurite extension effect, as compared to a case without these components” value in data set [3] was “enhanced”. The “MTT assay in medium with hydrogen peroxide” value in data set [5] was “a value without problem”.

As to `OO` [hydrogen peroxide, reference compound], the “MTT assay, as compared to the medium without hydrogen peroxide (control)” value in data set [5] (medium containing only hydrogen peroxide, 100 μM) is recorded as “significantly decreased”.

In the case of `COc1cc(/C=C/C(=O)CC(=O)/C=C/c2ccc(O)c(OC)c2)ccc1O` [curcumin, Curcumin], the “amount of dopamine production produced by the PC12 cells vs control” value in data set [1] (0.1 μM added to the medium) and in data set [1] (2.5 μM added to the medium) was “higher than the control” each time. In addition, the “dopamine-producing ability, as compared to a case without these components” value in data set [1] is given as “enhanced”. In addition, the “extension of PC12 cells (extension percentage)” value in data set [3] (0.1 μM added to the medium), in data set [3] (0.5 μM added to the medium) and in data set [3] (2.5 μM added to the medium) was “significant extension enhancement” in each case. In addition, in data set [3], the “neurite extension effect, as compared to a case without these components” value is recorded as “enhanced”. Moreover, in data set [5], the “MTT assay in medium with hydrogen peroxide” value was “a value without problem”.
